The results in this text go back to ChEMBL document CHEMBL4507294, “Data for DCP probe MSD-CYP11B2” (2021).

Each structure is given as a SMILES string.

Test [1] concerns the target Acetylcholine receptor subunit alpha (Homo sapiens) (UniProt P02708). In words: Inhibition of Nicotinic Acetylcholine D1, Bungarotoxin at 10 µM in the Eurofins-Panlabs radioligand binding assay (Eurofins_assay_258700). Particulars: Compound concentration 10.0 uM.
Test [2] deals with T1, 5-hydroxytryptamine receptor 3A (Homo sapiens) (UniProt P46098).
T1 sequence (whole entry): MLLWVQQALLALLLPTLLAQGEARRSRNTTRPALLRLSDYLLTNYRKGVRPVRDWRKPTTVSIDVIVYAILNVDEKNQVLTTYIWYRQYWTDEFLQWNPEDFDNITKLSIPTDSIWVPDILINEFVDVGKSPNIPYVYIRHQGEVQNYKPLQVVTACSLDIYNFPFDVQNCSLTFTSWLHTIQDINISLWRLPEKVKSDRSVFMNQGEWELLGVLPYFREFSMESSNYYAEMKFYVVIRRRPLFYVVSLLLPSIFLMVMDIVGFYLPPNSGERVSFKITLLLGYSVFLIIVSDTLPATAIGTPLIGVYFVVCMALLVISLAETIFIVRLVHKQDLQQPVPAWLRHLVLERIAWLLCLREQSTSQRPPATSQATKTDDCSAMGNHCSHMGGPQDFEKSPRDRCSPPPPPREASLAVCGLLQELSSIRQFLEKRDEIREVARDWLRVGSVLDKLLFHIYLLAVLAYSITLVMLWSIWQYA
In words: Inhibition of Serotonin (5-Hydroxytryptamine) 5-HT3 at 10 µM in the Eurofins-Panlabs radioligand binding assay (Eurofins_assay_271910). More on the design: ligand concentration 0.69 nM. The settings on record: Compound concentration 10.0 uM.

Test [3] deals with T2, 5-hydroxytryptamine receptor 2B (Homo sapiens, UniProt P41595). Nature of the test: Panlabs assay (HTR2B). Also on record: compound concentration 10 uM.
T2 sequence (P41595 whole entry): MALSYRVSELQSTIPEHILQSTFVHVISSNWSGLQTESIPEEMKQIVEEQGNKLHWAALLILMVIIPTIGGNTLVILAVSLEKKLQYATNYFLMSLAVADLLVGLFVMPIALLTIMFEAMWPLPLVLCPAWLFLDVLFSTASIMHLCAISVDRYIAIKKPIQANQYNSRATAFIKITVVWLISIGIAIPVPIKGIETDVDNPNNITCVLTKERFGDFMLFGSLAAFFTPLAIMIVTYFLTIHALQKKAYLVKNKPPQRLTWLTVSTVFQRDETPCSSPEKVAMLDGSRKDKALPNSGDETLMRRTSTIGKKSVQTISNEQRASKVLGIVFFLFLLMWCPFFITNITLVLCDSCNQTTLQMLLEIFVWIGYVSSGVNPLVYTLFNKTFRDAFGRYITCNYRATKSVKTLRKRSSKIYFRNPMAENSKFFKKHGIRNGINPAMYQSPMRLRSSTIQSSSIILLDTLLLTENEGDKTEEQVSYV
Test [4] addresses T3, Alpha-2B adrenergic receptor (Homo sapiens) (UniProt P18089).
T3 sequence (whole entry): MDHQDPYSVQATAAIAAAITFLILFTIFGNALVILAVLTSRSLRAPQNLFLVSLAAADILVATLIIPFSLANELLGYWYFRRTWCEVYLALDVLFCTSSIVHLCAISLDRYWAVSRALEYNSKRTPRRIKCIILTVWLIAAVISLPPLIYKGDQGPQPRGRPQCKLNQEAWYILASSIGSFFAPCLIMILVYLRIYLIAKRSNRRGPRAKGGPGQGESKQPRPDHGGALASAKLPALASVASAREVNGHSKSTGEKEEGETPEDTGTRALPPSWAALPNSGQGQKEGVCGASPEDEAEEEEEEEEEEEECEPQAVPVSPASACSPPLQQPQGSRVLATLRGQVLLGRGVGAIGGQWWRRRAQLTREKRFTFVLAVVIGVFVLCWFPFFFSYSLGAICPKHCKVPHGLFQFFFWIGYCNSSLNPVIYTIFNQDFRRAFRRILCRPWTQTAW

Test [5] concerns the target Alpha-2C adrenergic receptor (Homo sapiens, UniProt P18825). Nature of the test: GPCRScan assay: inhibition of Alpha2C. More on the design: radioligand conc. used [nm] 0.5 – 1.0, parental cells stable MDCK.
Test [6] concerns the target Alpha-2A adrenergic receptor (Homo sapiens, UniProt P08913). Nature of the test: GPCRScan assay: inhibition of Alpha2A. Also on record: radioligand conc. used [nm] 1.0 – 3.0, parental cells stable MDCK.
The next test is filed under the species Rattus norvegicus. Nature of the test: Glutamate, NMDA, Polyamine Eurofins-Panlabs radioligand binding assay. It is filed as protein-complex assay. Also on record: ligand concentration 2 nM. Particulars: Compound concentration 10.0 uM.
Test [7] addresses Alpha-1D adrenergic receptor (Homo sapiens) (UniProt P25100). Particulars: Compound concentration 10.0 uM.
Test [8] concerns the target Glutamate receptor ionotropic, kainate (Rattus norvegicus) (UniProt P22756+Q01812+P42260+P42264+Q63273). Nature of the test: Inhibition of Glutamate, Kainate at 10 µM in the Eurofins-Panlabs radioligand binding assay (Eurofins_assay_232700). Particulars: Compound concentration 10.0 uM.
The target of test [9] is T2, 5-hydroxytryptamine receptor 2B. In words: Inhibition of Serotonin (5-Hydroxytryptamine) 5-HT2B at compound concentration of 10.0 uM in the Eurofins-Panlabs radioligand binding assay (Eurofins_assay_271700). More on the design: ligand concentration 1.2 nM, non-specific ligand with concentration 10 uM Serotonin (5-HT), incubation time 60 min, incubation temperature 37 C.

Test [10] has as its target T4, Alpha-2B adrenergic receptor (Homo sapiens, UniProt P18089).
T4 sequence (P18089 whole entry): T3 sequence (whole entry)
In words: GPCRScan assay: inhibition of Alpha2B. More on the design: radioligand conc. used [nm] 1.5 – 2.0, parental cells HEKT.

The species named for the next test is Homo sapiens. In words: Glutamate, Metabotropic, mGlu5 Eurofins-Panlabs radioligand binding assay. Particulars: Compound concentration 10.0 uM.
Test [11] has as its target Neuropeptide Y receptor type 1 (Homo sapiens) (UniProt P25929). In words: Inhibition of Neuropeptide Y Y1 at 10 µM in the Eurofins-Panlabs radioligand binding assay (Eurofins_assay_257010). Particulars: Compound concentration 10.0 uM.
Test [12] has as its target Alpha-1A adrenergic receptor (Homo sapiens) (UniProt P35348). Particulars: Compound concentration 10.0 uM.
Test [13] deals with Gamma-aminobutyric acid type B receptor subunit 1 (Homo sapiens) (UniProt Q9UBS5). The settings on record: Rattus norvegicus; Compound concentration 10.0 uM.
In test [14] the target is Muscarinic acetylcholine receptor M4 (Homo sapiens) (UniProt P08173). Particulars: Compound concentration 10.0 uM.
Test [15] addresses Peroxisome proliferator-activated receptor gamma (Homo sapiens) (UniProt P37231). In words: PPARgamma Eurofins-Panlabs radioligand binding assay. Particulars: Compound concentration 10.0 uM. More on the design: ligand concentration 5 nM, non-specific ligand with concentration 0.5 µM L-797773, incubation time 18 h, incubation temperature 15 °C.
The target of test [16] is Cannabinoid receptor 1 (Homo sapiens) (UniProt P21554). The settings on record: Compound concentration 10.0 uM.
Test [17] addresses Melanocyte-stimulating hormone receptor (Homo sapiens) (UniProt Q01726). Nature of the test: Melanocortin MC1 Eurofins-Panlabs radioligand binding assay. The settings on record: Compound concentration 10.0 uM.
Test [18] has as its target GABA-A receptor; anion channel (Rattus norvegicus) (UniProt O09028+P15431+P18506+P18508+P19969+P20236+P23574+P23576+P28471+P28473+P30191+P62813+P63079+P63138+Q91ZM7+Q9ES14). The settings on record: Compound concentration 10.0 uM.
The target in test [19] is Muscarinic acetylcholine receptor M3 (Homo sapiens) (UniProt P20309). Particulars: Compound concentration 10.0 uM.
Chain of Muscarinic acetylcholine receptor M3 (Homo sapiens) (P20309 whole entry, looked up): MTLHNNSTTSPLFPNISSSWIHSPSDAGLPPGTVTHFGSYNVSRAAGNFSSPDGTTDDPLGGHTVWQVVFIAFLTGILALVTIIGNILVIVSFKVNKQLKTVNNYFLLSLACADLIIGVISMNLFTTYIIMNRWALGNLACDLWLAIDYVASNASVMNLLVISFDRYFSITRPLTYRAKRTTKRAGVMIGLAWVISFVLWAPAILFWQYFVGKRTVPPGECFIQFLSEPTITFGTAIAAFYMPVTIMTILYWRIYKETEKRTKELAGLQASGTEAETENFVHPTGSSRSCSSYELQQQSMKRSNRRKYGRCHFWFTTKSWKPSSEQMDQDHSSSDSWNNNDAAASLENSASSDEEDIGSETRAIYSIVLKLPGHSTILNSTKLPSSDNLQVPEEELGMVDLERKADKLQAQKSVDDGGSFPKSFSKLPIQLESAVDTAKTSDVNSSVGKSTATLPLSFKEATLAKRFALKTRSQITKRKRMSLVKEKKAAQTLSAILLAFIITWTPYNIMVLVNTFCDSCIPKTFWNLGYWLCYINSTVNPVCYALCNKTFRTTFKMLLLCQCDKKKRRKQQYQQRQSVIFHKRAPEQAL
Test [20] addresses Histamine H1 receptor (Homo sapiens) (UniProt P35367). Particulars: Compound concentration 10.0 uM.
Test [21] addresses Mu-type opioid receptor (Homo sapiens) (UniProt P35372). The settings on record: Compound concentration 10.0 uM.
The target of test [22] is Beta-1 adrenergic receptor (Homo sapiens, UniProt P08588). Nature of the test: Panlabs assay (ADRB1). Also on record: compound concentration 10 uM.
Test [23] has as its target Glutamate receptor 2 (Homo sapiens) (UniProt P42262). Particulars: Rattus norvegicus; Compound concentration 10.0 uM.
For test [24], the target named is Glutamate NMDA receptor (Rattus norvegicus) (UniProt P35439+Q00959+Q00960+Q00961+Q62645+Q8VHN2+Q9R1M7). The settings on record: Compound concentration 10.0 uM.
Test [25] concerns the target T2, 5-hydroxytryptamine receptor 2B.
For test [26], the target named is 5-hydroxytryptamine receptor 6 (Homo sapiens, UniProt P50406). In words: GPCRScan assay: inhibition of 5-HT6. Also on record: radioligand conc. used [nm] 2.0 – 4.0, parental cells stable HEK.
For test [27], the target named is Delta-type opioid receptor (Homo sapiens) (UniProt P41143). The settings on record: Compound concentration 10.0 uM.
Chain of Delta-type opioid receptor (Homo sapiens) (P41143 whole entry): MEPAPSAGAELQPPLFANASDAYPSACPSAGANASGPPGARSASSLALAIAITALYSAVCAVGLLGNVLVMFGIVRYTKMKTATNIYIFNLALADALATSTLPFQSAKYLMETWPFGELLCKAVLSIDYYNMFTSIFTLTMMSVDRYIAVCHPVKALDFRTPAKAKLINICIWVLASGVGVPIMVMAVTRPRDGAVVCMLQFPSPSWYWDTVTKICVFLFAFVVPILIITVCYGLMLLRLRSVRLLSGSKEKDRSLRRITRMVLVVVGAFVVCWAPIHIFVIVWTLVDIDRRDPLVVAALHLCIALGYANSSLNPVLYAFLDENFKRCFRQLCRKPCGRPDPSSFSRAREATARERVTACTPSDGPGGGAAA

Chain of Alpha-1A adrenergic receptor (Homo sapiens) (P35348 whole entry): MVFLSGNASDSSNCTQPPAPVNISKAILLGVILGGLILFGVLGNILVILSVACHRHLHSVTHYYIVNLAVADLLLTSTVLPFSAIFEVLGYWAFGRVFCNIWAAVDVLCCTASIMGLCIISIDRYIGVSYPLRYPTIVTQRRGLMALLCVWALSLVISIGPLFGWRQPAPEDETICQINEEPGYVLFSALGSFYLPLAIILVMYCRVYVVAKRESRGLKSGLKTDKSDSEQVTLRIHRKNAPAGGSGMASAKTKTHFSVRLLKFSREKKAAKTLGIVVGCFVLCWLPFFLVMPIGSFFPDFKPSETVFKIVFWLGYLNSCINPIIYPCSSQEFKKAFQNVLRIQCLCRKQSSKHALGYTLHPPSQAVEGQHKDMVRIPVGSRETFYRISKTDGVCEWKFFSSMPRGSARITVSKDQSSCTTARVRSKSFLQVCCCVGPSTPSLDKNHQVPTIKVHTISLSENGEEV
Chain of Alpha-1D adrenergic receptor (Homo sapiens) (P25100 whole entry): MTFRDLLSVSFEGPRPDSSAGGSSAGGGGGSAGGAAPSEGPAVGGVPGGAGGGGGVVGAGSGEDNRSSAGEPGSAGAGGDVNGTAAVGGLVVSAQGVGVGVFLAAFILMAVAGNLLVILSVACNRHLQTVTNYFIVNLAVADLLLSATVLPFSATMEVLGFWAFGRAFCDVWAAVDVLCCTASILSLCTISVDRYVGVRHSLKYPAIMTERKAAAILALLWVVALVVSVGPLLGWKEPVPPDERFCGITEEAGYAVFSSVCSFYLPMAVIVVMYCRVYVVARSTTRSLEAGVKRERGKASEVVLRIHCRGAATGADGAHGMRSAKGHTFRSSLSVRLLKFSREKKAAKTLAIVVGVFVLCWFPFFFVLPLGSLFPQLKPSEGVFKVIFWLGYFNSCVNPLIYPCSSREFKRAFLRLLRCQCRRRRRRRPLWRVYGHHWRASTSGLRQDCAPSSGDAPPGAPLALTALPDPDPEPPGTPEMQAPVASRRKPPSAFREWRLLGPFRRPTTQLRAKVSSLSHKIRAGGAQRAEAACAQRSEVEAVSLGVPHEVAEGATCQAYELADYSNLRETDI
Chain of Peroxisome proliferator-activated receptor gamma (Homo sapiens) (P37231 whole entry): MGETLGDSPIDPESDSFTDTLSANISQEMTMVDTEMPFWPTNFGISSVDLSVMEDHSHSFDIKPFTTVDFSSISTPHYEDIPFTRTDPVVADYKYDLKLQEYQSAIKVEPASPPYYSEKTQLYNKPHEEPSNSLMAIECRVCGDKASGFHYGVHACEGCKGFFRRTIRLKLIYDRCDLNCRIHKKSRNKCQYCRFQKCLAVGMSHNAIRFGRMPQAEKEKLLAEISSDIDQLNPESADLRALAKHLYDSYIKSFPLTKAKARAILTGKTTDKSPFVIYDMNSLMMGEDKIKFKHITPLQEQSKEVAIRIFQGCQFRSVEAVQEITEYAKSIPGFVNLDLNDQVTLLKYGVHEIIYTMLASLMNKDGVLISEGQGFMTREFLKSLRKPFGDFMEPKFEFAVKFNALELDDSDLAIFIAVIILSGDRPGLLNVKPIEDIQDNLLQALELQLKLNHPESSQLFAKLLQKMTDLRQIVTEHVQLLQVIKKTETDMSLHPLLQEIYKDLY
Chain of Glutamate receptor 2 (Homo sapiens) (P42262 whole entry): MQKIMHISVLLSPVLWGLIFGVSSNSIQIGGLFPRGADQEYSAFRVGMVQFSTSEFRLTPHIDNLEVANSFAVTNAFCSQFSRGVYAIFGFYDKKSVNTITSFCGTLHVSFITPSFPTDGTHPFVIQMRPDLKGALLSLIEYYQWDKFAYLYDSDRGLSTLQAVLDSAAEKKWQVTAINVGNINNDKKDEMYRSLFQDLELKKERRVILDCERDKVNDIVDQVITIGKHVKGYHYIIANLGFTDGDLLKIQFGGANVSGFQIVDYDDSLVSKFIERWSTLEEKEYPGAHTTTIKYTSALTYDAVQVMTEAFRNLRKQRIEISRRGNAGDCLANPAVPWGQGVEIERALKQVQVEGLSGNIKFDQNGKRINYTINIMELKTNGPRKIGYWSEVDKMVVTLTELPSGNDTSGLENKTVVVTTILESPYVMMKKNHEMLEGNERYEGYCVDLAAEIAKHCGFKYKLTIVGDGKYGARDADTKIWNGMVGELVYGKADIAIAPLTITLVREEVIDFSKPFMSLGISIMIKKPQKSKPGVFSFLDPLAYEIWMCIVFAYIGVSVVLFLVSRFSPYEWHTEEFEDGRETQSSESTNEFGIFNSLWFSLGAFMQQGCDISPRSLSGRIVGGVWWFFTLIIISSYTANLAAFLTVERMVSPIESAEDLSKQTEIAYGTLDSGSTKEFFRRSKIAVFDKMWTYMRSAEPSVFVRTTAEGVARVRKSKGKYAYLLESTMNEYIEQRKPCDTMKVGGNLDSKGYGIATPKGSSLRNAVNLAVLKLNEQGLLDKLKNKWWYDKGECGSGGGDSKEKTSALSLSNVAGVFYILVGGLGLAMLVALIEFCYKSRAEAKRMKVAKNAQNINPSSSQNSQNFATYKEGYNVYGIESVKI
Chain of Neuropeptide Y receptor type 1 (Homo sapiens) (P25929 whole entry): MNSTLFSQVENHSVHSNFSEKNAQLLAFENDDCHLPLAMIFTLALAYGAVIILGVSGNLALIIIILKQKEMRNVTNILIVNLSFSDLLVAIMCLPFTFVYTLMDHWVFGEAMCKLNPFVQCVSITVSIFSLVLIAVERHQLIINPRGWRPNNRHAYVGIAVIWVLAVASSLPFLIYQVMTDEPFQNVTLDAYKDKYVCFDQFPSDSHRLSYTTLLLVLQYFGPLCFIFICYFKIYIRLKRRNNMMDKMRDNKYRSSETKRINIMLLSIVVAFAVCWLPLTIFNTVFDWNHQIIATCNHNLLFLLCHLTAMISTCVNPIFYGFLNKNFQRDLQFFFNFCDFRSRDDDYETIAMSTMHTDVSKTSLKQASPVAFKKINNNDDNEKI
Chain of Acetylcholine receptor subunit alpha (Homo sapiens) (P02708 whole entry): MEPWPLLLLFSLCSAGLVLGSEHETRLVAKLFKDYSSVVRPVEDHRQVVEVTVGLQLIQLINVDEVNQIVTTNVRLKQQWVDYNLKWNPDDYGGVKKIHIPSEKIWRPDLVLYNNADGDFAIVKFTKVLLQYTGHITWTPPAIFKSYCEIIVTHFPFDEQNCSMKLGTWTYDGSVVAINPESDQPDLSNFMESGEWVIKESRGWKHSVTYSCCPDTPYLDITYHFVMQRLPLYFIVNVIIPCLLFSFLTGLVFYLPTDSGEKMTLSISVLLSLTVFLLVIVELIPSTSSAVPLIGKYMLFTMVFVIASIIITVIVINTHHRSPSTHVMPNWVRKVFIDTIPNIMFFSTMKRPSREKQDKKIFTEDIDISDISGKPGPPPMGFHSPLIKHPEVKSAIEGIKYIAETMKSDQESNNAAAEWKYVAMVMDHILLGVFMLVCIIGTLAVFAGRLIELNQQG

A word on the inhibition: it is the change of the read-out against control, counted positive when it falls. By IC50 is commonly meant the concentration at which inhibition is half-maximal. The low end stands for greater potency, the high end for weaker potency. The Ki is a measure of affinity in units of concentration, obtained from inhibition or displacement. On to `CC(C)(O)c1cncc(-c2nc3ccc(F)cc3n2C2CC2)c1` [MSD-CYP11B2], for which the inhibition was 0% in [1]; -4% in [2]; 9% in test [4] (Compound concentration 0.1 uM); 20% in [4] (Compound concentration 1.0 uM); 65% in test [4] (Compound concentration 10.0 uM); -3% in the test listed under Rattus norvegicus. The inhibition was 2.58% in [7]; -5% in test [8]; 25% in the test filed under Homo sapiens; 11% in test [11]; -3.03% in test [12]; 6% in test [13]. Besides, the inhibition in test [14] was -0.57%; in test [15], 8%; in [16] it was 7%; in test [17], -1%; in [18], 6.26%; in test [19] it was 2%. Further, the inhibition in [20] was 23%; in test [21], 7%; in test [23] it was 22%; in test [24], -1%; in test [25] (Compound concentration 0.01 uM), -2%; in test [25] (Compound concentration 0.1 uM) it was -5%. The inhibition in [25] (Compound concentration 1.0 uM) is 17%; in test [25] (Compound concentration 10.0 uM) it was 65%. Moreover, the IC50 amounted to 5.33 µM in test [3], 5.33 µM in test [9] and 9.62 µM in test [22]. The Ki in test [5] is 0.626 µM; in [6], 2.61 µM; in test [9], 3.39 µM; in test [10], 1.44 µM.
For the molecule `FC(F)(F)c1ccc2c(c1)nc(-c1cccnc1)n2C1CC1` [MSD-CYP11B2-Negative-control], the Ki in test [26] worked out at 3.06 µM. The inhibition in [27] is -9.33%.
